Data: patent US20140235447A1, “METHODS FOR […] YIELD” (Syngenta Crop Protection LLC, priority 2013, published 2014)
Where “and” joins values, the source holds several entries; their conditions need not be identical. Equal values may be shown once.

Legend:
[1] = test system: cotton; assay: Treatment of tropical cotton with single or multiple applications of 1-MCP, seed cotton yield; assay type: in vivo; conditions: 9.6 GAI/HA
Protocol: Four different replicates of treatment of cotton are performed. […] Treatment A designates application of cyclopropene at the stage of Pin Head Square +14 days. Treatment B designates application of cyclopropene at the stage of first flowers. […]

[2] = test system: Tropical corn; assay: Treatment of tropical corn with single or multiple applications of 1-MCP, crop yield; assay type: in vivo; conditions: for Yield increase in kg/ha, Single app. @ V3-5: single application at stage of 3-5 fully collared leaves; for Yield increase in kg/ha, Single app @ V10: single application at stage of 10 leaves; for Yield increase in kg/ha, Double app. @ V3&10: two applications, 3-5 fully collared leaves and 10 leaf stage
Protocol: Tropical corn is treated with a combination of extruded granules of dextrose containing 0.1% 1-MCP and coated sand granules also containing 0.1% 1-MCP. The plants are treated with (1) a single application at the stage of 3-5 fully collared leaves; (2) a single application at the stage of 10 leaves; or (3) two applications with a first application at stage of 3-5 fully collared leaves and a second application at the 10 leaf stage. Dosages of 5 g/hectare, 10 g/hectare, and 25 g/hectare 1-MCP are applied for each of the three different treatment regimes.
The results are presented in Table 1 and FIG. 1 with yield being measured in kg/hectare. For each dosage amount the left bar designates treatment 1 (a single application at the stage of 3-5 fully collared leaves), the middle bar designates treatment 2 (a single application at the stage of 10 leaves), and the right hand bar designates treatment 3 (application at both the stage of 3-5 fully collared leaves and again at the 10 leaf stage). For each of the 5 g/hectare treatment, the 10 g/hectare treatment, and the 25 g/hectare treatment, the yield is increased by more than 150% for plants undergoing two treatments when compared to plants treated only once.

CC1=CC1 [1-MCP, 1-methylcyclopropene]
Yield difference between treated plots and untreated checks, Double Applications AB: Floral buds enlarged/Early bloom, average ([1]; average of trials 1-5): 713 kg/ha of seed cotton | Yield difference between treated plots and untreated checks, Double Applications BC: Early bloom/10% of bolls at final size, average ([1]; average of trials 1-5): 796 kg/ha of seed cotton | Yield difference between treated plots and untreated checks, Single Application A: Floral buds distinctly enlarged, average ([1]; average of trials 1-5): 577 kg/ha of seed cotton | Yield difference between treated plots and untreated checks, Single Application B: Early bloom, average ([1]; average of trials 1-5): 568 kg/ha of seed cotton | Yield difference between treated plots and untreated checks, Single Application C: 10% of bolls at final size, average ([1]; average of trials 1-5): 512 kg/ha of seed cotton | Yield difference between treated plots and untreated checks, Double Applications AB: Floral buds enlarged/Early bloom ([1]; individual trials 1-5): 560 kg/ha of seed cotton and 185 kg/ha of seed cotton and 883 kg/ha of seed cotton and 1563 kg/ha of seed cotton and 375 kg/ha of seed cotton | Yield difference between treated plots and untreated checks, Double Applications BC: Early bloom/10% of bolls at final size ([1]; individual trials 1-5): 696 kg/ha of seed cotton and 262 kg/ha of seed cotton and 1042 kg/ha of seed cotton and 1667 kg/ha of seed cotton and 313 kg/ha of seed cotton | Yield difference between treated plots and untreated checks, Single Application A: Floral buds distinctly enlarged ([1]; individual trials 1-5): 571 kg/ha of seed cotton and 167 kg/ha of seed cotton and 767 kg/ha of seed cotton and 1132 kg/ha of seed cotton and 250 kg/ha of seed cotton | Yield difference between treated plots and untreated checks, Single Application B: Early bloom ([1]; individual trials 1-5): 839 kg/ha of seed cotton and 369 kg/ha of seed cotton and 767 kg/ha of seed cotton and 757 kg/ha of seed cotton and 106 kg/ha of seed cotton | Yield difference between treated plots and untreated checks, Single Application C: 10% of bolls at final size ([1]; individual trials 1-5): 780 kg/ha of seed cotton and 280 kg/ha of seed cotton and 792 kg/ha of seed cotton and 715 kg/ha of seed cotton and −6 kg/ha of seed cotton | Yield increase in kg/ha, Single app. @ V3-5 ([2]; 5 g/ha 1-MCP): 506 kg/ha | Yield increase in kg/ha, Single app @ V10 ([2]; 5 g/ha 1-MCP): 351 kg/ha | Yield increase in kg/ha, Double app. @ V3&10 ([2]; 5 g/ha 1-MCP): 1082 kg/ha | yield increase for plants undergoing two treatments compared to plants treated only once ([2]; 5 g/hectare treatment): more than 150% | Yield increase in kg/ha, Single app. @ V3-5 ([2]; 10 g/ha 1-MCP): 557 kg/ha | Yield increase in kg/ha, Single app @ V10 ([2]; 10 g/ha 1-MCP): 618 kg/ha | Yield increase in kg/ha, Double app. @ V3&10 ([2]; 10 g/ha 1-MCP): 1580 kg/ha | yield increase for plants undergoing two treatments compared to plants treated only once ([2]; 10 g/hectare treatment): more than 150% | Yield increase in kg/ha, Single app. @ V3-5 ([2]; 20-25 g/ha 1-MCP): 826 kg/ha | Yield increase in kg/ha, Single app @ V10 ([2]; 20-25 g/ha 1-MCP): 543 kg/ha | Yield increase in kg/ha, Double app. @ V3&10 ([2]; 20-25 g/ha 1-MCP): 1539 kg/ha | yield increase for plants undergoing two treatments compared to plants treated only once ([2]; 25 g/hectare treatment): more than 150%
